# ChEMBL document CHEMBL5725355, “Methods for treating seizure disorders and pain” (2017)
# Experiments:
# [1] = (§1) Voltage-Clamp Assay: All experiments were conducted at room temperature (22-24° C.) with an EPC-10 amplifier and Pulse software (HEKA, Lambrecht/Pfalz, Germany) in the whole-cell mode of the patch-clamp technique. Human embryonic kidney (HEK)-293 cell lines stably expressing hNav1.1, hNav1.5, hNav1.7 channels (generously provided by Dr. Christopher Lossin, University of California Davis), hNav1.4 (Frank Lehmann-Horn, University of Ulm), or hKv2.1 channels (James Trimmer, University of California Davis) were bathed in extracellular solution containing (in mM): 160 NaCl; 4.5 KCl; 1 MgCl2; 2 CaCl2; 10 HEPES [pH was adjusted to 7.4 using NaOH (310 mOsm)]. Pipettes were filled with intracellular solution containing (in mM): 145 KF; 2 MgCl2; 10 ethylene glycol tetraacetic acid; 10 HEPES (pH adjusted to 7.2 with KOH; 300 mOsm). Neuroblastoma N1E-115 cells (ATCC, Manassa, Va., USA) expressing Nav1.2 were patched with a CsF internal solution consisting of (in mM): 10 NaF; 110 CsF; 20 CsCl; 2 ethylene glycol tetraacetic acid; 10 HEPES (CsOH to pH 7.35; 300 mOsm). All pipette tip resistances were 2-4 MΩ. Series resistances of 3-10 MΩ were compensated 40-80%. All cells were voltage-clamped to a holding potential of −90 mV unless otherwise specified. The sampling frequency was 5 kHz. Na+ currents were elicited by 30-ms pulse to 0 mV from −90 mV applied every 10 s. […]
# [2] = as §1; remark: listed apart in the source
# [3] = as §1; remark: listed apart in the source
# [4] = as §1; remark: listed apart in the source
# [5] = as §1; remark: listed apart in the source
# [6] = as §1; remark: listed apart in the source
structure (smiles),measurement,setting,value
Nc1nc2ccc(SC(F)(F)F)cc2s1,EC50,[1],2.2 µM
same,EC50,[2],4.5 µM
same,EC50,[3],6.9 µM
same,EC50,[4],5.8 µM
same,EC50,[5],7.9 µM
same,EC50,[6],22.3 µM
